One assay addresses Wild-type IDH2 (Homo sapiens (Human), UniProt P48735). Description: Biochemical assay for wild-type IDH2 enzyme (isocitrate to αKG, LC-MS). The conditions noted are these: pH 7.5. As to the method: (§1) IDH1 and IDH2 enzymes catalyze the conversion of isocitrate to αKG. […] Following derivatization at room temperature for one hour, samples are extracted with 600 μL of EtOAc.
A further assay has as its target Wild-type IDH1 (Homo sapiens (Human), UniProt O75874). In words: Biochemical assay for wild-type IDH1 enzyme (isocitrate to αKG, LC-MS). The conditions noted are these: pH 7.5. As to the method:
as §1

The target of a further assay is IDH2-R140Q (Homo sapiens (Human), UniProt P48735, R140Q). In words: Biochemical assay for IDH2 R140Q mutant enzyme (conversion of αKG to 2HG, RapidFire MS). The conditions noted are these: IDH2/R140Q IC50, 1.2 nM enzyme, 90 minutes, pH 7.0.
Sequence of IDH2-R140Q (P48735 40-452 R140Q): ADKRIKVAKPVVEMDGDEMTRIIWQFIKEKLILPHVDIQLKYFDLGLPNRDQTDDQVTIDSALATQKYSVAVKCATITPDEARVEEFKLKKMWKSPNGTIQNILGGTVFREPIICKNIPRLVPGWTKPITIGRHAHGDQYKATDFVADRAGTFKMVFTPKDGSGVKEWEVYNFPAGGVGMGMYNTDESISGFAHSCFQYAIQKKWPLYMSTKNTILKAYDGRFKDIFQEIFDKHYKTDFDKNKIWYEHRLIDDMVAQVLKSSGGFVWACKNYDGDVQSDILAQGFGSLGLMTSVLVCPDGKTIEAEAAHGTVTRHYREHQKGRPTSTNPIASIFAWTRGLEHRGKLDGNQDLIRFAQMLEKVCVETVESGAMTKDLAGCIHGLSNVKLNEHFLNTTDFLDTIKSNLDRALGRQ
The next assay addresses IDH2-R172K (Homo sapiens (Human), UniProt P48735, R172K). In words: Biochemical assay for IDH2 R172K mutant enzyme (conversion of αKG to 2HG, RapidFire MS). The conditions noted are these: IDH2/R172K IC50, 1.2 nM enzyme, 90 minutes, pH 7.0.

Experimental findings from patent US11001596B2, “7-phenylethylamino-4H-pyrimido[4,5-d][1,3]oxazin-2-one compounds as mutant IDH1 and IDH2 inhibitors” (Eli Lilly and Company, priority 2016, dated 2021) are described below.

As a reminder, the IC50 is the concentration that inhibits the measured activity by half.

Sequence of IDH2-R172K (P48735 40-452 R172K): as the sequence (P48735 40-452 R140Q) above, with Q101R, R133K counted along it
Sequence of Wild-type IDH1 (O75874 whole entry): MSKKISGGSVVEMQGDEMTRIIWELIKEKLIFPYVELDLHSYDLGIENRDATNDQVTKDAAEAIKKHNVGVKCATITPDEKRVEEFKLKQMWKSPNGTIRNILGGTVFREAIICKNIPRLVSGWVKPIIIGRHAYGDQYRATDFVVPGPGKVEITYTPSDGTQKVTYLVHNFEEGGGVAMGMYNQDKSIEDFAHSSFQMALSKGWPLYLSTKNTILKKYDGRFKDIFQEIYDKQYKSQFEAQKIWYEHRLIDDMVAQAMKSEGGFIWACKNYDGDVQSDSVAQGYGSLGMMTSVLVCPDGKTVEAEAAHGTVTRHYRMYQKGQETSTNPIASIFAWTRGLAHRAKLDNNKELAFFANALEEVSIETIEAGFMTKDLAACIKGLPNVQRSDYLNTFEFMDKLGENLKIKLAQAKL
Sequence of Wild-type IDH2 (P48735 40-452): as the sequence (P48735 40-452 R140Q) above, with Q101R counted along it

`C=CC(=O)N1CCN(C(CC2CC2)c2ccc([C@H](C)Nc3ncc4c(n3)N(C)C(=O)OC4)cc2)CC1` (single isomer, unassigned) [Example 3]: the IC50 on Wild-type IDH2 is 3370 nM; against Wild-type IDH1 it was 425 nM; against IDH2-R140Q, 64.8 nM; on IDH2-R172K, 15.6 nM.
Take `C=CC(=O)N1CCN(C(CC2CC2)c2ccc([C@H](C)Nc3ncc4c(n3)N(C)C(=O)OC4)cc2)CC1` (single isomer, unassigned) [Example 4]: the IC50 against Wild-type IDH2 was determined as 3700 nM; against Wild-type IDH1, 302 nM; on IDH2-R140Q, 81.1 nM; against IDH2-R172K, 28 nM.
For `C=CC(=O)N1CCN(C(CC(C)C)c2ccc([C@H](C)Nc3ncc4c(n3)N(CC)C(=O)OC4)cc2)CC1` (single isomer, unassigned) [Example 7] the same measures were 1530 nM, 233 nM, 74.3 nM and 22.4 nM.
`C=CC(=O)N1CCN(C(CC(C)C)c2ccc([C@H](C)Nc3ncc4c(n3)N(CC)C(=O)OC4)cc2)CC1` (single isomer, unassigned) [Example 8]: the IC50 is 1620 nM at Wild-type IDH2, 237 nM against Wild-type IDH1, 46 nM at IDH2-R140Q and 17 nM against IDH2-R172K.
Turning to `C=CC(=O)N1CCN(C(CC)c2ccc([C@H](C)Nc3ncc4c(n3)N(CC)C(=O)OC4)cc2)CC1` (single isomer, unassigned) [Example 11], the IC50 was 2080 nM at Wild-type IDH2, 345 nM at Wild-type IDH1, 54.3 nM on IDH2-R140Q and 20 nM at IDH2-R172K.
For `C=CC(=O)N1CCN(C(CC)c2ccc([C@H](C)Nc3ncc4c(n3)N(CC)C(=O)OC4)cc2)CC1` (single isomer, unassigned) [Example 12] the same measures were 3220 nM, 277 nM, 134 nM and 26.3 nM.
As for `C=CC(=O)N1CCN(C(CCOC)c2ccc([C@H](C)Nc3ncc4c(n3)N(CC)C(=O)OC4)cc2)CC1` (single isomer, unassigned) [Example 13], the IC50 against Wild-type IDH2 was found to be 7030 nM; against Wild-type IDH1, 456 nM; against IDH2-R140Q, 239 nM; on IDH2-R172K it was 39 nM.
`C=CC(=O)N1CCN(C(CCOC)c2ccc([C@H](C)Nc3ncc4c(n3)N(CC)C(=O)OC4)cc2)CC1` (single isomer, unassigned) [Example 14]: the IC50 against Wild-type IDH2 is 7400 nM; at Wild-type IDH1 it was 392 nM; on IDH2-R140Q, 746 nM; against IDH2-R172K it was 162 nM.
`C=CC(=O)N1CCN([C@H](CC2CC2)c2ccc([C@H](C)Nc3ncc4c(n3)N(CC)C(=O)OC4)cc2)CC1` [Example 1, 7-[[(1S)-1-[4-[(1R)-2-Cyclopropyl-1-(4-prop-2-enoylpiperazin-1-yl)ethyl]phenyl]ethyl]amino]-1-ethyl-4H-pyrimido[4,5-d][1,3]oxazin-2-one]: the half-inhibitory concentration (IC50) was found to be 801 ± 745 nM at Wild-type IDH2, 85.4 ± 107 nM against Wild-type IDH1, 113 nM at IDH2-R140Q and 32.8 nM against IDH2-R172K.
Turning to `C=CC(=O)N1CCN([C@@H](CC2CC2)c2ccc([C@H](C)Nc3ncc4c(n3)N(CC)C(=O)OC4)cc2)CC1` [Example 2, 7-[[(1S)-1-[4-[(1S)-2-cyclopropyl-1-(4-prop-2-enoylpiperazin-1-yl)ethyl]phenyl]ethyl]amino]-1-ethyl-4H-pyrimido[4,5-d][1,3]oxazin-2-one], the IC50 against Wild-type IDH2 was 884 ± 748 nM; against Wild-type IDH1, 105 ± 113 nM; at IDH2-R140Q, 36.9 nM; on IDH2-R172K it was 11.5 nM.
In the case of `C=CC(=O)N1CCN(C(CC(C)C)c2ccc([C@H](C)Nc3ncc4c(n3)N(CC)C(=O)OC4)cc2)CC1` (stereo partly drawn) [Example 6, 1-Ethyl-7-[[(1S)-1-[4-[3-methyl-1-(4-prop-2-enoylpiperazin-1-yl)butyl]phenyl]ethyl]amino]-4H-pyrimido[4,5-d][1,3]oxazin-2-one], the IC50 against Wild-type IDH2 was 493 nM; against Wild-type IDH1, 54.9 nM.
